The results in this text go back to ChEMBL document CHEMBL1212814, “Polyamines in drug discovery: from the universal template approach to the multitarget-directed ligand design strategy” (J Med Chem, 2010).

The nature of this assay: Inhibition of amyloid beta (1-40) aggregation by thioflavin T based fluorometric assay.

Broadly, the IC50 is the concentration that gives 50% inhibition. As to `CCN(CCCCCCNC1=CC(=O)C(NCCCCCCN(CC)Cc2ccccc2OC)=CC1=O)Cc1ccccc1OC` [MEMOQUIN], the concentration for half-maximal inhibition (IC50) amounted to 5.93 µM. The result for `CN(C)[C@@H]1C(O)=C(C(N)=O)C(=O)[C@@]2(O)C(O)=C3C(=O)c4c(O)cccc4[C@@](C)(O)[C@H]3C[C@@H]12` [TETRACYCLINE] reads 60.3 µM.
